Source: US10144705B2 (Commissariat a l'energie atomique et aux energies …, priority 2012, dated 2018)

Assays:
[1] = cited from earlier work
[2] = tested on: in-vitro cell-based BBB model (coculture of glial cells and brain endothelial cells); assay type: in vitro ADME
Protocol: The in-vitro cell-based BBB model which is used to assess the permeability of fatty esters consists in a coculture of glial cells and brain endothelial cells. A transport buffer (150 mM NaCl, 5.2 mM KCl, 2.2 mM CaCl2, 0.2 mM MgCl2, 6 mM NaHCO3, 2.8 mM glucose and 5 mM Hepes) is added: 1500 μl to the basolateral chamber (which represents the cerebral parenchyma) and 500 μl to the apical chamber (which represents the blood). The fatty esters are introduced in the apical compartment. After 60 min, aliquots are removed from the apical and basolateral chambers for drug-concentration determination. The percentage of drug from the initial dosage that crossed BBB is calculated as follows: P (%)=[(Bf×1500)/(A0×500)]×100 where Bf is the amount of tested compounds in the basolateral compartment at the end point. A0 is the initial amount in the apical compartment at time point 0.

| permeability through the blood brain barrier [2] | translocation within brain endothelial cells or in the basal compartment [2] | SMILES | oral bioavailability [1] |
| --- | --- | --- | --- |
|  |  | CN(CC(=O)O)C(=N)N [creatine, 2-1(methylguanidino) acetic acid] | low |
| not | no translocation | CCOC(=O)CN(C)C(=N)N [C2] |  |
